{"source": "PubChem BioAssay AID1963964", "about": "(Molecular Pharmacology Branch, DTP, NCI, 2024);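 note: spheroids exposed to compounds for seven days before readout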", "test_system": "997726-040-R-J2-PDC tumor spheroids, viability", "test": "Anticancer human tumor 997726-040-R-J2-PDC patient-derived squamous cell lung carcinoma cell line growth inhibition [PI3K]", "details": "spheroids with HUVEC and MSC; for IC50: curve of first compound; for viability, T/C: stronger effect = lower value", "outline": "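Viability of mixed-cell spheroids was determined after exposure to pairwise combinations, one partner being inavolisib, alpelisib, duvelisib or copanlisib. Highest tested concentration matched clinical Cmax where known and 10 microM where not, descending in half-log steps.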", "key": {"[1]": {"details": "second compound 0.00316 µM, first compound 0.0316 µM"}, "[2]": {"details": "second compound 0.00316 µM, first compound 0.1 µM"}, "[3]": {"details": "second compound 0.01 µM, first compound 0.0316 µM"}, "[4]": {"details": "second compound 0.01 µM, first compound 0.1 µM"}, "[5]": {"details": "second compound 0.0316 µM, first compound 0.0316 µM"}, "[6]": {"details": "second compound 0.0316 µM, first compound 0.1 µM"}, "[7]": {"details": "second compound 0.1 µM, first compound 0.0316 µM"}, "[8]": {"details": "second compound 0.1 µM, first compound 0.1 µM"}, "[9]": {"details": "second compound 0.316 µM, first compound 0.0316 µM"}, "[10]": {"details": "second compound 0.316 µM, first compound 0.1 µM"}, "[11]": {"details": "second compound 1 µM, first compound 0.0316 µM"}, "[12]": {"details": "second compound 1 µM, first compound 0.1 µM"}}}
{"smiles": "CC(=O)c1c(C)c2cnc(Nc3ccc(N4CCNCC4)cn3)nc2n(C2CCCC2)c1=O", "note": "+ COc1c(OCCCN2CCOCC2)ccc2c3n(c(=NC(=O)c4cnc(N)nc4)nc12)CCN3", "values": [{"measurement": "IC50", "setting": "second compound 0.00316 µM", "value": "> 100", "unit": "nM"}, {"measurement": "IC50", "setting": "second compound 0.01 µM", "value": 15.6, "unit": "nM"}, {"measurement": "IC50", "setting": "second compound 0.0316 µM", "value": "< 0.316", "unit": "nM"}, {"measurement": "IC50", "setting": "second compound 0.1 µM", "value": "< 0.316", "unit": "nM"}, {"measurement": "IC50", "setting": "second compound 0.316 µM", "value": "< 0.316", "unit": "nM"}, {"measurement": "IC50", "setting": "second compound 1 µM", "value": "< 0.316", "unit": "nM"}, {"measurement": "viability, T/C", "setting": "second compound 0.00316 µM, first compound 0.000316 µM", "value": 73, "unit": "%"}, {"measurement": "viability, T/C", "setting": "second compound 0.00316 µM, first compound 0.001 µM", "value": 77.6, "unit": "%"}, {"measurement": "viability, T/C", "setting": "second compound 0.00316 µM, first compound 0.00316 µM", "value": 69.8, "unit": "%"}, {"measurement": "viability, T/C", "setting": "second compound 0.00316 µM, first compound 0.01 µM", "value": 75, "unit": "%"}, {"measurement": "viability, T/C", "setting": "[1]", "value": 60.1, "unit": "%"}, {"measurement": "viability, T/C", "setting": "[2]", "value": 52.4, "unit": "%"}, {"measurement": "viability, T/C", "setting": "second compound 0.01 µM, first compound 0.000316 µM", "value": 62.1, "unit": "%"}, {"measurement": "viability, T/C", "setting": "second compound 0.01 µM, first compound 0.001 µM", "value": 60.9, "unit": "%"}, {"measurement": "viability, T/C", "setting": "second compound 0.01 µM, first compound 0.00316 µM", "value": 53.8, "unit": "%"}, {"measurement": "viability, T/C", "setting": "second compound 0.01 µM, first compound 0.01 µM", "value": 55.8, "unit": "%"}, {"measurement": "viability, T/C", "setting": "[3]", "value": 44.4, "unit": "%"}, {"measurement": "viability, T/C", "setting": "[4]", "value": 39.2, "unit": "%"}, {"measurement": "viability, T/C", "setting": "second compound 0.0316 µM, first compound 0.000316 µM", "value": 32.2, "unit": "%"}, {"measurement": "viability, T/C", "setting": "second compound 0.0316 µM, first compound 0.001 µM", "value": 42.1, "unit": "%"}, {"measurement": "viability, T/C", "setting": "second compound 0.0316 µM, first compound 0.00316 µM", "value": 35.3, "unit": "%"}, {"measurement": "viability, T/C", "setting": "second compound 0.0316 µM, first compound 0.01 µM", "value": 34.1, "unit": "%"}, {"measurement": "viability, T/C", "setting": "[5]", "value": 28.1, "unit": "%"}, {"measurement": "viability, T/C", "setting": "[6]", "value": 25.7, "unit": "%"}, {"measurement": "viability, T/C", "setting": "second compound 0.1 µM, first compound 0.000316 µM", "value": 20.6, "unit": "%"}, {"measurement": "viability, T/C", "setting": "second compound 0.1 µM, first compound 0.001 µM", "value": 23.3, "unit": "%"}, {"measurement": "viability, T/C", "setting": "second compound 0.1 µM, first compound 0.00316 µM", "value": 23.9, "unit": "%"}, {"measurement": "viability, T/C", "setting": "second compound 0.1 µM, first compound 0.01 µM", "value": 21, "unit": "%"}, {"measurement": "viability, T/C", "setting": "[7]", "value": 18.7, "unit": "%"}, {"measurement": "viability, T/C", "setting": "[8]", "value": 17.1, "unit": "%"}, {"measurement": "viability, T/C", "setting": "second compound 0.316 µM, first compound 0.000316 µM", "value": 5.23, "unit": "%"}, {"measurement": "viability, T/C", "setting": "second compound 0.316 µM, first compound 0.001 µM", "value": 5.65, "unit": "%"}, {"measurement": "viability, T/C", "setting": "second compound 0.316 µM, first compound 0.00316 µM", "value": 6.03, "unit": "%"}, {"measurement": "viability, T/C", "setting": "second compound 0.316 µM, first compound 0.01 µM", "value": 5.28, "unit": "%"}, {"measurement": "viability, T/C", "setting": "[9]", "value": 5.14, "unit": "%"}, {"measurement": "viability, T/C", "setting": "[10]", "value": 3.76, "unit": "%"}, {"measurement": "viability, T/C", "setting": "second compound 1 µM, first compound 0.000316 µM", "value": 1.5, "unit": "%"}, {"measurement": "viability, T/C", "setting": "second compound 1 µM, first compound 0.001 µM", "value": 1.26, "unit": "%"}, {"measurement": "viability, T/C", "setting": "second compound 1 µM, first compound 0.00316 µM", "value": 1.01, "unit": "%"}, {"measurement": "viability, T/C", "setting": "second compound 1 µM, first compound 0.01 µM", "value": 1.2, "unit": "%"}, {"measurement": "viability, T/C", "setting": "[11]", "value": 1.19, "unit": "%"}, {"measurement": "viability, T/C", "setting": "[12]", "value": 1.06, "unit": "%"}]}
{"smiles": "CNC(=O)c1ccc(N2C(=S)N(c3ccc(C#N)c(C(F)(F)F)c3)C(=O)C2(C)C)cc1F", "note": "+ COc1c(OCCCN2CCOCC2)ccc2c3n(c(=NC(=O)c4cnc(N)nc4)nc12)CCN3", "values": [{"measurement": "IC50", "setting": "second compound 0.00316 µM", "value": "> 10000", "unit": "nM"}, {"measurement": "IC50", "setting": "second compound 0.01 µM", "value": "> 10000", "unit": "nM"}, {"measurement": "IC50", "setting": "second compound 0.0316 µM", "value": "< 31.6", "unit": "nM"}, {"measurement": "IC50", "setting": "second compound 0.1 µM", "value": "< 31.6", "unit": "nM"}, {"measurement": "IC50", "setting": "second compound 0.316 µM", "value": "< 31.6", "unit": "nM"}, {"measurement": "IC50", "setting": "second compound 1 µM", "value": "< 31.6", "unit": "nM"}, {"measurement": "viability, T/C", "setting": "[1]", "value": 73.4, "unit": "%"}, {"measurement": "viability, T/C", "setting": "[2]", "value": 81.8, "unit": "%"}, {"measurement": "viability, T/C", "setting": "second compound 0.00316 µM, first compound 0.316 µM", "value": 70.3, "unit": "%"}, {"measurement": "viability, T/C", "setting": "second compound 0.00316 µM, first compound 1 µM", "value": 76.1, "unit": "%"}, {"measurement": "viability, T/C", "setting": "second compound 0.00316 µM, first compound 3.16 µM", "value": 77.7, "unit": "%"}, {"measurement": "viability, T/C", "setting": "second compound 0.00316 µM, first compound 10 µM", "value": 68.2, "unit": "%"}, {"measurement": "viability, T/C", "setting": "[3]", "value": 66.2, "unit": "%"}, {"measurement": "viability, T/C", "setting": "[4]", "value": 61.2, "unit": "%"}, {"measurement": "viability, T/C", "setting": "second compound 0.01 µM, first compound 0.316 µM", "value": 54.8, "unit": "%"}, {"measurement": "viability, T/C", "setting": "second compound 0.01 µM, first compound 1 µM", "value": 54.8, "unit": "%"}, {"measurement": "viability, T/C", "setting": "second compound 0.01 µM, first compound 3.16 µM", "value": 56.4, "unit": "%"}, {"measurement": "viability, T/C", "setting": "second compound 0.01 µM, first compound 10 µM", "value": 50, "unit": "%"}, {"measurement": "viability, T/C", "setting": "[5]", "value": 38.2, "unit": "%"}, {"measurement": "viability, T/C", "setting": "[6]", "value": 40.2, "unit": "%"}, {"measurement": "viability, T/C", "setting": "second compound 0.0316 µM, first compound 0.316 µM", "value": 35.9, "unit": "%"}, {"measurement": "viability, T/C", "setting": "second compound 0.0316 µM, first compound 1 µM", "value": 36.6, "unit": "%"}, {"measurement": "viability, T/C", "setting": "second compound 0.0316 µM, first compound 3.16 µM", "value": 31.1, "unit": "%"}, {"measurement": "viability, T/C", "setting": "second compound 0.0316 µM, first compound 10 µM", "value": 30.9, "unit": "%"}, {"measurement": "viability, T/C", "setting": "[7]", "value": 24.3, "unit": "%"}, {"measurement": "viability, T/C", "setting": "[8]", "value": 27.4, "unit": "%"}, {"measurement": "viability, T/C", "setting": "second compound 0.1 µM, first compound 0.316 µM", "value": 21.6, "unit": "%"}, {"measurement": "viability, T/C", "setting": "second compound 0.1 µM, first compound 1 µM", "value": 24.9, "unit": "%"}, {"measurement": "viability, T/C", "setting": "second compound 0.1 µM, first compound 3.16 µM", "value": 20.5, "unit": "%"}, {"measurement": "viability, T/C", "setting": "second compound 0.1 µM, first compound 10 µM", "value": 22.4, "unit": "%"}, {"measurement": "viability, T/C", "setting": "[9]", "value": 5.92, "unit": "%"}, {"measurement": "viability, T/C", "setting": "[10]", "value": 6.55, "unit": "%"}, {"measurement": "viability, T/C", "setting": "second compound 0.316 µM, first compound 0.316 µM", "value": 5.84, "unit": "%"}, {"measurement": "viability, T/C", "setting": "second compound 0.316 µM, first compound 1 µM", "value": 6.05, "unit": "%"}, {"measurement": "viability, T/C", "setting": "second compound 0.316 µM, first compound 3.16 µM", "value": 6.82, "unit": "%"}, {"measurement": "viability, T/C", "setting": "second compound 0.316 µM, first compound 10 µM", "value": 4.31, "unit": "%"}, {"measurement": "viability, T/C", "setting": "[11]", "value": 1.55, "unit": "%"}, {"measurement": "viability, T/C", "setting": "[12]", "value": 1.44, "unit": "%"}, {"measurement": "viability, T/C", "setting": "second compound 1 µM, first compound 0.316 µM", "value": 1.25, "unit": "%"}, {"measurement": "viability, T/C", "setting": "second compound 1 µM, first compound 1 µM", "value": 1.13, "unit": "%"}, {"measurement": "viability, T/C", "setting": "second compound 1 µM, first compound 3.16 µM", "value": 1.39, "unit": "%"}, {"measurement": "viability, T/C", "setting": "second compound 1 µM, first compound 10 µM", "value": 1.47, "unit": "%"}]}
